# From patent US7951811B2, “Pyrrolo[2,3-D]pyrimidine derivatives substituted with a cyclic amino group” (Taisho Pharmaceutical Co., Ltd., priority 2004, dated 2011)
# Biological target: T1, δ receptor (delta opioid receptor) (Rattus norvegicus, UniProt P33533)
# T1 construct: Rat Brain Membranes were Used as a Receptor Preparation; from tissue; host or cells: rat brain membranes
# Experiment: δ receptor binding test (3H-DPDPE displacement)
# Settings: rat brain membranes, 3H-DPDPE 1.5 nM, 25° C., 70 minutes; read-out: IC50 (concentration at which binding of 3H-DPDPE is inhibited by 50%)
# Description: Rat Brain Membranes were Used as a Receptor Preparation.
# ^3H-DPDPE ([D-Pen^2,D-Pen^5]-Enkephalin) was used as ^3H-labeled ligand.
# Binding reaction using the ^3H-labeled ligand was carried out by the following method.
# Preparation of Receptor Membranes:
# Rat brain was homogenized in 50 mM Tris-HCl buffer (pH 7.4) containing 10 mM MgCl2 and 1 mM EDTA, and centrifuged at 48,000×g for 20 min, and the precipitate was washed once with Tris-HCl buffer. The washed precipitate was suspended in 50 mM Tris-HCl buffer (pH 7.4) containing 10 mM MgCl2 and 1 mM EDTA, to obtain a membrane preparation.
# Delta Opioid Receptor Binding Test:
# The membrane preparation (1 mg protein/ml), H-DPDPE (1.5 nM) and a test drug were reacted at 25° C. for 70 minutes. After completion of the reaction, the reaction mixture was filtered by suction through a glass filter (GF/B) treated with 0.3% polyethylene imine, and the glass filter was washed three times with 50 mM Tris-HCl buffer (pH 7.4) containing 10 mM MgCl2 and 1 mM EDTA. After the washing, scintillation cocktail was added to the filters, and the radioactivity of the filter was measured in a liquid scintillation counter.
# The amount of ^3H-DPDPE bound when the reaction was carried out in the presence of 10 μM naltrindole was taken as the degree of nonspecific binding of ^3H-DPDPE, and the difference between the total degree of ^3H-DPDPE binding and the degree of nonspecific ^3H-DPDPE binding was taken as the degree of specific ^3H-DPDPE binding. An inhibition curve was obtained by reacting a definite concentration (1.5 nM) of ^3H-DPDPE with various concentrations of each test drug under the conditions described above. A concentration of the test drug at which binding of ^3H-DPDPE is inhibited by 50% (IC50) was determined from the inhibition curve.
# T1 sequence (P33533 whole entry): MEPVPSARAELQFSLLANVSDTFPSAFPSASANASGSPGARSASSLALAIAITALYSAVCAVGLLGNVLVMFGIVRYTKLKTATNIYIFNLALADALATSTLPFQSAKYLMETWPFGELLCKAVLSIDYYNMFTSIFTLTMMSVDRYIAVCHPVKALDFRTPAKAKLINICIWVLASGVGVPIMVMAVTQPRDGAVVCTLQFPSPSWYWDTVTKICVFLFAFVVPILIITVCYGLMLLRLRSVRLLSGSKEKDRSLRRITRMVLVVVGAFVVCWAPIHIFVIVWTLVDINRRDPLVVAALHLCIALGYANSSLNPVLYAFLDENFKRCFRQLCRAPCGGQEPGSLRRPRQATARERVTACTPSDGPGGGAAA
row,Compound,IC50
1,"Cc1nc(N2CCC(CC(=O)O)CC2)c2c(C)c(C)n(-c3c(C)cc(Br)cc3C)c2n1 [Compound 1-001, {1-[7-(4-bromo-2,6-dimethyl-phenyl)-2,5,6-trimethyl-7H-pyrrolo[2,3-d]pyrimidin-4-yl]-piperidin-4-yl}-acetic acid]",≤ 500 nM
2,"Cc1nc(N2CCC(CC(=O)O)CC2)c2c(C)cn(-c3c(C)cc(Br)cc3C)c2n1 [Compound 1-002, {1-[7-(4-bromo-2,6-dimethyl-phenyl)-2,5-dimethyl-7H-pyrrolo[2,3-d]pyrimidin-4-yl]-piperidin-4-yl}-acetic acid]",≤ 500 nM
3,"Cc1cc(N2CCC(CC(=O)O)CC2)c2c(C)c(C)n(-c3c(C)cc(Br)cc3C)c2n1 [Compound 1-003, {1-[1-(4-bromo-2,6-dimethyl-phenyl)-2,3,6-trimethyl-1H-pyrrolo[2,3-b]pyridin-4-yl]-piperidin-4-yl}-acetic acid]",≤ 500 nM
4,"Cc1cc(N2CCC(CC(=O)O)CC2)c2c(C)cn(-c3c(C)cc(Br)cc3C)c2n1 [Compound 1-004, {1-[1-(4-bromo-2,6-dimethyl-phenyl)-3,6-dimethyl-1H-pyrrolo[2,3-b]pyridin-4-yl]-piperidin-4-yl}-acetic acid]",≤ 500 nM
5,"Cc1cc(N2CCC(CC(=O)O)CC2)c2c(C)c(C)n(-c3c(C)cc(Cl)cc3C)c2n1 [Compound 1-005, {1-[1-(4-chloro-2,6-dimethyl-phenyl)-2,3,6-trimethyl-1H-pyrrolo[2,3-b]pyridin-4-yl]-piperidin-4-yl}-acetic acid]",≤ 500 nM
6,"Cc1cc(N2CCC(CC(=O)O)CC2)c2c(C)cn(-c3c(C)cc(Cl)cc3C)c2n1 [Compound 1-006, {1-[1-(4-chloro-2,6-dimethyl-phenyl)-3,6-dimethyl-1H-pyrrolo[2,3-b]pyridin-4-yl]-piperidin-4-yl}-acetic acid]",≤ 500 nM
7,"Cc1cc(N2CCC(CC(=O)O)CC2)c2c(C)cn(-c3c(Cl)cc(Cl)cc3Cl)c2n1 [Compound 1-011, {1-[3,6-dimethyl-1-(2,4,6-trichloro-phenyl)-1H-pyrrolo[2,3-b]pyridin-4-yl]-piperidin-4-yl}-acetic acid]",≤ 500 nM
8,"Cc1cc(N2CCC(CC(=O)O)CC2)c2c(C)cn(-c3c(Br)cc(Cl)cc3Br)c2n1 [Compound 1-012, {1-[1-(2,6-dibromo-4-chloro-phenyl)-3,6-dimethyl-1H-pyrrolo[2,3-b]pyridin-4-yl]-piperidin-4-yl}-acetic acid]",≤ 500 nM
9,"Cc1cc(N2CCC(CC(=O)O)CC2)c2c(C)cn(-c3ccc(Br)cc3Br)c2n1 [Compound 1-016, {1-[1-(2,4-dibromo-phenyl)-3,6-dimethyl-1H-pyrrolo[2,3-b]pyridin-4-yl]-piperidin-4-yl}-acetic acid]",≤ 500 nM
10,"Cc1nc(N2CCC(CCC(=O)O)CC2)c2c(C)cn(-c3c(C)cc(Br)cc3C)c2n1 [Compound 1-018, 3-{1-[7-(4-bromo-2,6-dimethyl-phenyl)-2,5-dimethyl-7H-pyrrolo[2,3-d]pyrimidin-4-yl]-piperidin-4-yl}-propionic acid]",≤ 500 nM
11,"Cc1cc(N2CCC(CCC(=O)O)CC2)c2c(C)c(C)n(-c3c(C)cc(Br)cc3C)c2n1 [Compound 1-019, 3-{1-[1-(4-bromo-2,6-dimethyl-phenyl)-2,3,6-trimethyl-1H-pyrrolo[2,3-b]pyridin-4-yl]-piperidin-4-yl}-propionic acid]",≤ 500 nM
12,"Cc1cc(N2CCC(CCC(=O)O)CC2)c2c(C)cn(-c3c(C)cc(Br)cc3C)c2n1 [Compound 1-020, 3-{1-[1-(4-bromo-2,6-dimethyl-phenyl)-3,6-dimethyl-1H-pyrrolo[2,3-b]pyridin-4-yl]-piperidin-4-yl}-propionic acid]",≤ 500 nM
13,"Cc1cc(N2CCC(CCC(=O)O)CC2)c2c(C)c(C)n(-c3c(C)cc(Cl)cc3C)c2n1 [Compound 1-021, 3-{1-[1-(4-chloro-2,6-dimethyl-phenyl)-2,3,6-trimethyl-1H-pyrrolo[2,3-b]pyridin-4-yl]-piperidin-4-yl}-propionic acid]",≤ 500 nM
14,"Cc1cc(N2CCC(CCC(=O)O)CC2)c2c(C)cn(-c3c(C)cc(Cl)cc3C)c2n1 [Compound 1-022, 3-{1-[1-(4-chloro-2,6-dimethyl-phenyl)-3,6-dimethyl-1H-pyrrolo[2,3-b]pyridin-4-yl]-piperidin-4-yl}-propionic acid]",≤ 500 nM
15,"Cc1cc(N2CCC(CCC(=O)O)CC2)c2c(C)cn(-c3c(Cl)cc(Br)cc3Cl)c2n1 [Compound 1-025, 3-{1-[1-(4-bromo-2,6-dichloro-phenyl)-3,6-dimethyl-1H-pyrrolo[2,3-b]pyridin-4-yl]-piperidin-4-yl}-propionic acid]",≤ 500 nM
16,"Cc1cc(N2CCC(CCC(=O)O)CC2)c2c(C)cn(-c3c(Cl)cc(Cl)cc3Cl)c2n1 [Compound 1-026, 3-{1-[3,6-dimethyl-1-(2,4,6-trichloro-phenyl)-1H-pyrrolo[2,3-b]pyridin-4-yl]piperidin-4-yl}-propionic acid]",≤ 500 nM
17,"Cc1cc(N2CCC(CCC(=O)O)CC2)c2c(C)cn(-c3c(Br)cc(Cl)cc3Br)c2n1 [Compound 1-027, 3-{1-[1-(2,6-dibromo-4-chloro-phenyl)-3,6-dimethyl-1H-pyrrolo[2,3-b]pyridin-4-yl]-piperidin-4-yl}-propionic acid]",≤ 500 nM
18,"Cc1cc(N2CCC(CCCC(=O)O)CC2)c2c(C)c(C)n(-c3c(C)cc(Br)cc3C)c2n1 [Compound 1-032, 4-{1-[1-(4-bromo-2,6-dimethyl-phenyl)-2,3,6-trimethyl-1H-pyrrolo[2,3-b]pyridin-4-yl]-piperidin-4-yl}-butyric acid]",≤ 500 nM
19,"Cc1cc(N2CCC(CP(=O)(O)O)CC2)c2c(C)cn(-c3c(C)cc(Br)cc3C)c2n1 [Compound 1-045, {1-[1-(4-bromo-2,6-dimethyl-phenyl)-3,6-dimethyl-1H-pyrrolo[2,3-b]pyridin-4-yl]-piperidin-4-ylmethyl}-phosphonic acid]",≤ 500 nM
20,"Cc1cc(N2CCC(CS(=O)(=O)O)CC2)c2c(C)cn(-c3c(C)cc(Br)cc3C)c2n1 [Compound 1-047, {1-[1-(4-bromo-2,6-dimethyl-phenyl)-3,6-dimethyl-1H-pyrrolo[2,3-b]pyridin-4-yl]-piperidin-4-yl}-methanesulfonic acid]",≤ 500 nM
21,"Cc1cc(N2CCC(CCS(=O)(=O)O)CC2)c2c(C)cn(-c3c(C)cc(Br)cc3C)c2n1 [Compound 1-048, 2-{1-[1-(4-bromo-2,6-dimethyl-phenyl)-3,6-dimethyl-1H-pyrrolo[2,3-b]pyridin-4-yl]-piperidin-4-yl}-ethanesulfonic acid]",≤ 500 nM
